From patent publication US20200009185A1, “METHOD FOR MAINTAINING INCREASED […] p53 LEVEL, INDUCED BY […]-BASED […] DRUG, AND APPLICATION THEREOF” (priority 2015, published 2020)

What was measured:
Hela cells [1] = experiment: Western blot of TP53 and HPV E6/E7 after HPV E6/E7 siRNA and cisplatin (Example 1-1); assay type: cell-based, human; conditions: Hela cells transformed with HPV E6/E7 siRNA, 10 μM cisplatin for 24 hours; FIG. 1A
Experimental: Cervical cancer cell and HeLa cervical cancer cell lines (HeLa; ATCC CCL-2) infected with HPV type 18 virus and SiHa cervical cancer cell lines (SiHa; ATCC HTB-35) infected with HPV type 16 virus were plated on a 6-well plate with 5×10^4 or 1×10^5 cells and cultured in RPMI 1640 or DMEM medium for 24 hours at 37° C. and 5% carbon dioxide, respectively. siRNA intracellular transfection was performed with DharmaFect (Dharmacon, Lafayette, Colo., USA) according to manufacturer's instructions.
HeLa cervical carcinoma cells infected with HPV type 18 virus were transformed by pooling with each of siRNAs of 426 and 450 sequences, or respectively. The HPV type 16 virus-infected siHa cell line was transformed by pooling siRNAs of 366, 448 and 497 sequences, or respectively.
In the Western blot, whole-cell lysate was extracted with RIPA buffer (10 mM Tris ([…]), 0.15 M NaCl, 5 mM EDTA, 1% Triton X-100, 0.5% deoxycholic acid sodium salt and 0.1% SDS). After centrifugation, the protein concentration of the supernatant was measured using a BCA protein assay kit (Thermo Fisher Scientific Inc). Protein samples were placed in sample buffer and boiled for 5 minutes for complete denaturation. The samples were then applied to 6%, 10%, or 15% polyacrylamide gels and transferred to a 0.4 μm PVDF membrane (Milipore, Bilerica). […] Finally, the expression level of the protein was detected using ECL solution. […]

CaSki cells [2] = experiment: as above; assay type: cell-based, human; conditions: CaSki cells transformed with HPV E6/E7 siRNA, 10 μM cisplatin for 24 hours; FIG. 1A
CaSki cells [3] = experiment: WST cell viability analysis (Example 1-2); assay type: cell-based, human; conditions: CaSki cells transformed with HPV E6/E7 siRNA, 10 μM cisplatin 24 hours, vs group not treated with cisplatin; FIG. 1B
Experimental: (§1) WST analysis was performed to confirm cell viability.
(§2) Cell counts were determined by water soluble tetrazolium salts (WST) (EZ-Cytox kit; Daeil Lab Service, Seoul, Korea). EZ-Cytox solution (50 μl) added to each well of a 12-well plate and incubated for 2 to 3 hours. Live cells were measured (485 nm) using a GENios Pro microplate reader (Tecan Trading AG, Mannedorf, Switzerland) in a 96-well plate.

Hela cells [4] = experiment: WST cell viability analysis (Example 1-2); assay type: cell-based, human; conditions: Hela cells transformed with HPV E6/E7 siRNA, 10 μM cisplatin 24 hours, vs group not treated with cisplatin; FIG. 1B
Experimental: as §1, §2

CaSki cells [5] = experiment: TP53 and E2F luciferase reporter assay (Example 1-3); assay type: cell-based, human; conditions: CaSki cells treated with cisplatin and HPV E6/E7 siRNA; FIG. 1C
Experimental: (§3) The above luciferase reporter vector system was purchased from Clontech pathway profiling system (Mountain View, Calif., USA). Luciferase assay was performed using Dual-Luciferase Reporter Assay System (Promega) after 24 hours of transfection, and luminescence activity was measured using a GENios Pro microplate reader (Tecan Trading AG, Mannedorf, Switzerland).

Hela cells [6] = experiment: as above; assay type: cell-based, human; conditions: Hela cells treated with cisplatin and HPV E6/E7 siRNA; FIG. 1C
Experimental: as §3

CaSki cells [7] = experiment: Western blot of TP53, RB, E6, E7 at time points (Example 1-4); assay type: cell-based, human; conditions: CaSki cells transformed with HPV E6/E7 siRNA then treated with cisplatin; FIG. 1D, 1E
Description: (§4) Cell lysates were then obtained and subjected to western blotting.
(§5) In western blotting, antibodies of Santa Cruz Biotechnology ([…], Calif.) were used for TP53 [DO7], HPV 18-E6 [G7], HPV 16-E6 [C1P5], HPV 18-E7 [F7], HPV 16-E7 [ED17], E2F-1 [KH195], Cyclin-E [M20], β-Actin [C4] and antibody of BD Pharmingen was used for RB [554164], antibody of cell signaling was used for phospho-TP53 (ser-15) [9284].

Hela cells [8] = experiment: as above; assay type: cell-based, human; conditions: Hela cells transformed with HPV E6/E7 siRNA then treated with cisplatin; FIG. 1D, 1E
Description: as §4, §5

[9] = tested on: human cervical cancer cells; experiment: Tumor growth in animal model transplanted with human cervical cancer cells; assay type: in vivo; conditions: low concentration of cisplatin
[10] = tested on: cervical cancer cell lines; experiment: Expression level of intracellular p53 over time in cervical cancer cell lines; assay type: cell-based

N.N.[Cl][Pt][Cl] [cisplatin, cis-diamminedichloroplatinum [II]]
amount of HPV E6/E7 protein expression (Hela cells [1]): not observed
amount of TP53 expression (Hela cells [1]): increased
amount of HPV E6/E7 protein expression (CaSki cells [2]): not observed
amount of TP53 expression (CaSki cells [2]): increased
cell viability (CaSki cells [3]): decreased
cell viability (Hela cells [4]): decreased
activity of E2F (luciferase reporter) (CaSki cells [5]): further decrease
activity of TP53 (luciferase reporter) (CaSki cells [5]): increase
activity of E2F (luciferase reporter) (Hela cells [6]): further decrease
activity of TP53 (luciferase reporter) (Hela cells [6]): increase
expression level of TP53 (CaSki cells [7]): increased
expression level of pRB (CaSki cells [7]): increased
expression levels of 16-E6 and 16-E7 (CaSki cells [7]): decreased
expression level of TP53 (Hela cells [8]): increased
expression level of pRB (Hela cells [8]): increased
expression levels of 18-E6 and 18-E7 (Hela cells [8]): decreased
tumor growth inhibitory effect [9]: no tumor growth inhibitory effect
expression level of intracellular p53 [10]: in the form of a pulse and repeatedly increased and decreased
